Laboratory results from patent publication US20170216315A1 (priority 2016, published 2017).
Marks after values point to notes of the source that are not given here.

Assays:
[1] = system: Superoxide dismutase (SOD); experiment: Activity of SOD in mouse liver; type: in vivo, mice; settings: for Activity of SOD: liver homogenate, alcoholic liquid diet, 4 weeks
male C57BL/6 mice [2] = experiment: Appearance and H&E staining of mouse liver; type: in vivo; settings: EK100 1, 5, 10 mg/kg/day vs EtOH group
Description: C-4. After “C-3” was completed, the mice were sacrificed. The weights of the mice hearts, livers, kidneys, spleens, and abdominal and epididymal fat pads were measured and recorded; the mice livers were washed with sterilized saline, and then the liver appearances were recorded by a camera. The collected organs and feces were stored at −80° C. for the following analysis (recording, sample collection and storage were conducted for all of the 8 mice from each group).
The photographs of the mouse liver appearance of each group recorded in [Preparation Examples]
Additionally, the photographs of stained mouse liver of each group recorded in [Preparation Examples]

male C57BL/6 mice [3] = experiment: Amount of glutathione (GSH) in liver homogenate; settings: for Amount of GSH: liver homogenate, alcoholic liquid diet, 4 weeks
[4] = system: PPAR-α, RXR-α, CPT1, UCP2; experiment: Expressions of fatty acid β-oxidation-promoting genes in liver (real-time PCR); type: in vivo, mice; settings: EK100 1, 5, 10 mg/kg/day vs EtOH group, p<0.05, FIG. 5
Description: (§1) C-4 was put into a 0.8 ml RNAlater containing an RNA stabilizer (Qiagen company, United States), and then the commercial kit (E.Z.N.A™ Tissue RNA kit, purchased from Omega Bio-Tek company, United States) was used to extract the mRNA therein. After that, the mRNA sample obtained therefrom was reverse transcribed to provide cDNA, and then specific primers (as shown in Table 2) were used to conduct real-time polymerase chain reaction (real-time PCR) of the cDNA to observe the expression of each gene in the mouse liver, wherein the operation steps of the real-time polymerase chain reaction were as follows: (i) 2 μl of cDNA (50 ng/μl), 5 μl of SYBR Green (Molecular Probes company, United States, Applied Biosystems/Fast SYBR® Green Master Mix), 2 μl of RNase-free water, 1 μl of forward primer, and 1 μl of reverse primer were well mixed and then centrifuged; (ii) the above sample was put into a real-time polymerase chain reaction system (Applied Biosystems/StepOne Real time PCR system) to detect the expression of each gene, wherein the expression of GAPDH was used as the positive control.
Therefore, the expressions of the above genes in the mouse liver of each group were compared by the analysis method of [Preparation Examples]

male C57BL/6 mice [5] = experiment: TBARS value of liver homogenate; settings: for TBARS value: liver homogenate, alcoholic liquid diet, 4 weeks
[6] = system: aspartate aminotransferase (AST); experiment: Activity of AST in serum; type: in vivo, mice; settings: EK100 1, 5, 10 mg/kg/day vs EtOH group; p<0.05; FIG. 8
Text: It has been known that both aspartate aminotransferase (AST) and alanine aminotransferase (ALT) are amino acid metabolic enzymes, which are widely present in the heart, liver, skeletal muscle, kidney and brain. When cells in organs are injured, AST and ALT will be released into the blood. Therefore, the activities of AST and ALT can be used as the injury markers of the above organs to detect organ injuries, wherein the higher activities of AST and ALT represent that organ injuries are more serious. For example, there is much more ALT in the liver. A higher activity of ALT in the liver would indicate a more serious injury.
To understand the effects of alcohol consumption and ergostatrien-3β-ol intake on the injury conditions of mice organs, mouse serum samples of each group provided in [Preparation Examples] C-2 (200 μl per group) were placed into automatic dry-biochemistry analyzer (Arkray, Inc., Japan, Spotechem™ EZ, SP-4430) with AST/ALT expert analytic test paper (Arkray, Inc., Japan, Spotechem™ II) to detect the activities of AST and ALT.

[7] = system: LXR-α, SREBP-1c, ACC, FAS, ME; experiment: Expressions of lipid synthesis-related genes in liver (real-time PCR); type: in vivo, mice; settings: EK100 1, 5, 10 mg/kg/day vs EtOH group, p<0.05, FIG. 4
Description: C-4 was put into a 0.8 ml RNAlater containing an RNA stabilizer (Qiagen company, United States), and then the commercial kit (E.Z.N.A™ Tissue RNA kit, purchased from Omega Bio-Tek company, United States) was used to extract the mRNA therein. After that, the mRNA sample obtained therefrom was reverse transcribed to provide cDNA, and then specific primers (as shown in Table 2) were used to conduct real-time polymerase chain reaction (real-time PCR) of the cDNA to observe the expression of each gene in the mouse liver, wherein the operation steps of the real-time polymerase chain reaction were as follows: (i) 2 μl of cDNA (50 ng/μl), 5 μl of SYBR Green (Molecular Probes company, United States, Applied Biosystems/Fast SYBR® Green Master Mix), 2 μl of RNase-free water, 1 μl of forward primer, and 1 μl of reverse primer were well mixed and then centrifuged; (ii) the above sample was put into a real-time polymerase chain reaction system (Applied Biosystems/StepOne Real time PCR system) to detect the expression of each gene, wherein the expression of GAPDH was used as the […] control.
It has been known that LXR-α, SREBP-1c, ACC, FAS, ME, etc. are genes related to lipid synthesis, thus, the expressions of the above genes in mouse liver of each group were compared by the analysis method of [Preparation Examples] D-2.

male C57BL/6 mice [8] = experiment: Amounts of TAG and TC in liver; type: in vivo; settings: EK100 1, 5, 10 mg/kg/day vs EtOH group; p<0.05; FIG. 2B
[9] = system: TLR4, MyD88, NF-κB, iNOS, COX-2, α-SMA; experiment: Expressions of pro-inflammatory genes in liver (real-time PCR); type: in vivo, mice; settings: EK100 1, 5, 10 mg/kg/day vs EtOH group, p<0.05, FIG. 10
Description: as §1

CYP2E1 = experiment: Protein expression of CYP2E1 in liver (western blot); type: in vivo, mice; settings: EK100 1, 5, 10 mg/kg/day vs EtOH group, p<0.05, FIGS. 13A, 13B
[10] = system: alcohol dehydrogenase (ADH); experiment: Activity of ADH in liver homogenate; type: in vivo, mice; settings: EK100 1, 5, 10 mg/kg/day vs control or EtOH group; p<0.05; FIG. 14A
Description: D-3 were analyzed. The operation steps were as follows: (i) 50 μl of liver homogenate, 50 μl of phosphate-buffered saline (PBS), and 1 ml of 0.1 M glycine-NaOH buffer (pH 10.8, 10 mM NAD^+) were well mixed; the mixture was left standing in the dark at room temperature for 4 minutes; and then the absorbance (A) of the mixture was measured at 340 nm wavelength; (ii) 50 μl of liver homogenate, 50 μl of phosphate-buffered saline (PBS), and 1 ml of 0.1 M glycine-NaOH buffer (pH 10.8, 10 mM NAD^+, 0.016 M ethanol) were well mixed; the mixture was left standing in the dark at room temperature for 4 minutes; and then the absorbance (B) of the mixture was measured at 340 nm wavelength; (iii) absorbance (A) and absorbance (B) were substituted into formula 2 below to calculate the activity of ADH (μmole/min/mg protein).

[11] = EK100 1, 5, 10 mg/kg/day vs EtOH group, p<0.05

CC(C)[C@@H](C)/C=C/[C@@H](C)[C@H]1CC[C@H]2C3=CCC4C[C@@H](O)CC[C@]4(C)C3=CC[C@]12C (stereo partly shown) [EK100]
Activity of SOD in liver compared to EtOH ([1]; EK100 10 mg/kg/day (EK100_10X) vs EtOH group, p<0.05): significantly increased | Activity of SOD ([1]; EK100_1X: 1 mg/kg/day gavage): 77.56 ± 3.33^c munit/mg protein | Activity of SOD ([1]; EK100_5X: 5 mg/kg/day gavage): 90.40 ± 6.16^b munit/mg protein | Activity of SOD ([1]; EK100_10X: 10 mg/kg/day gavage): 118.47 ± 4.64^a munit/mg protein | Number of fat vacuoles in liver tissue compared to EtOH (male C57BL/6 mice [2]; H&E staining, FIGS. 7A-7E): markedly decreased | Whitening phenomenon of liver compared to EtOH (male C57BL/6 mice [2]; liver appearance, FIGS. 6A-6E): decreased | Amount of GSH in liver compared to EtOH (male C57BL/6 mice [3]; [11]): significantly increased | Amount of GSH (male C57BL/6 mice [3]; EK100_1X: 1 mg/kg/day gavage): 49.08 ± 4.78^b nmol/mg protein | Amount of GSH (male C57BL/6 mice [3]; EK100_5X: 5 mg/kg/day gavage): 71.14 ± 4.17^a nmol/mg protein | Amount of GSH (male C57BL/6 mice [3]; EK100_10X: 10 mg/kg/day gavage): 77.21 ± 2.95^a nmol/mg protein | Expressions of fatty acid β-oxidation-promoting genes in liver compared to EtOH [4]: significantly increased | TBARS value of liver compared to EtOH (male C57BL/6 mice [5]; [11]): significantly decreased | TBARS value (male C57BL/6 mice [5]; EK100_1X: 1 mg/kg/day gavage): 0.56 ± 0.04^b nmol malondialdehyde/mg protein | TBARS value (male C57BL/6 mice [5]; EK100_5X: 5 mg/kg/day gavage): 0.54 ± 0.05^b nmol malondialdehyde/mg protein | TBARS value (male C57BL/6 mice [5]; EK100_10X: 10 mg/kg/day gavage): 0.46 ± 0.04^b nmol malondialdehyde/mg protein | Activity of AST in serum compared to EtOH [6]: significantly decreased | Expressions of lipid synthesis-related genes in liver compared to EtOH [7]: significantly decreased | Amount of TAG in liver compared to EtOH (male C57BL/6 mice [8]): significantly decreased | Amount of TC in liver compared to EtOH (male C57BL/6 mice [8]): significantly decreased | Expressions of pro-inflammatory genes in liver compared to EtOH [9]: significantly decreased | Protein expression of CYP2E1 in liver compared to EtOH (CYP2E1): significantly decreased | Activity of ADH in liver compared to control or EtOH [10]: significantly increased
